From patent US12077503B2, “Substituted cyclic amides and their use as herbicides” (FMC CORPORATION, priority 2015, dated 2024)

How the values were obtained:
Type in all cases: in vivo
[1] = tested on: velvetleaf (Abutilon theophrasti); assay: Test G Post-Emergence Protocol; conditions: Abutilon theophrasti, post-emergence, 312 h; for pest or weed control at 15.625 g/ha: 15.625 g ai/ha, evaluated after 13 days (100=total damage to plant; 0=no damage to plant), read-out: Velvetleaf damage rating; for pest or weed control at 62.5 g/ha: 62.5 g ai/ha, read-out: Velvetleaf damage rating (100=total damage to plant; 0=no damage to plant); for pest or weed control at 62.5 g/ha / pest or weed control at 250 g/ha: evaluated after 13 days; for pest or weed control at 250 g/ha: 250 g ai/ha, read-out: damage to plant, Velvetleaf (100=total damage to plant; 0=no damage to plant)
Procedure, shortened: (§1)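 Seedlings grown 8 days in soil in a glasshouse (24/16 °C day/night, 14 h light, 65% humidity) were sprayed post-emergence with compound in acetone/water 50:50 plus 0.5% Tween 20 at 15.625, 62.5 or 250 g/ha. Damage was scored after 13 days on a 0–100 scale (100 = total damage).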

[2] = tested on: barnyardgrass (Echinochloa crus-galli); assay: Test G Post-Emergence Protocol; conditions: Echinochloa crus-galli, post-emergence, 312 h; for pest or weed control at 15.625 g/ha: 15.625 g ai/ha, evaluated after 13 days (100=total damage to plant; 0=no damage to plant), read-out: Barnyardgrass damage rating; for pest or weed control at 62.5 g/ha: 62.5 g ai/ha, read-out: Barnyardgrass damage rating (100=total damage to plant; 0=no damage to plant); for pest or weed control at 62.5 g/ha / pest or weed control at 250 g/ha: evaluated after 13 days; for pest or weed control at 250 g/ha: 250 g ai/ha, read-out: damage to plant, Barnyardgrass (100=total damage to plant; 0=no damage to plant)
Procedure, shortened: as §1

[3] = tested on: ivy-leaved morning glory (Ipomoea hederacea); assay: Test G Post-Emergence Protocol; conditions: Ipomoea, post-emergence, 312 h; for pest or weed control at 15.625 g/ha: 15.625 g ai/ha, evaluated after 13 days (100=total damage to plant; 0=no damage to plant), read-out: Morningglory, Ivy-leaved damage rating; for pest or weed control at 62.5 g/ha: 62.5 g ai/ha, read-out: Morningglory, Ivy-leaved damage rating (100=total damage to plant; 0=no damage to plant); for pest or weed control at 62.5 g/ha / pest or weed control at 250 g/ha: evaluated after 13 days; for pest or weed control at 250 g/ha: 250 g ai/ha, read-out: damage to plant, Morningglory, Ivy-leaved (100=total damage to plant; 0=no damage to plant)
Procedure, shortened: as §1

[4] = tested on: giant foxtail (Setaria faberi); assay: Test G Post-Emergence Protocol; conditions: Setaria faberi, post-emergence, 312 h; for pest or weed control at 15.625 g/ha: 15.625 g ai/ha, evaluated after 13 days (100=total damage to plant; 0=no damage to plant), read-out: Foxtail, Giant damage rating; for pest or weed control at 62.5 g/ha: 62.5 g ai/ha, read-out: Foxtail, Giant damage rating (100=total damage to plant; 0=no damage to plant); for pest or weed control at 62.5 g/ha / pest or weed control at 250 g/ha: evaluated after 13 days; for pest or weed control at 250 g/ha: 250 g ai/ha, read-out: damage to plant, Foxtail, Giant (100=total damage to plant; 0=no damage to plant)
Procedure, shortened: as §1

[5] = tested on: redroot pigweed (Amaranthus retroflexus); assay: Test G Post-Emergence Protocol; conditions: Amaranthus retroflexus, post-emergence, 312 h; for pest or weed control at 15.625 g/ha: 15.625 g ai/ha, evaluated after 13 days (100=total damage to plant; 0=no damage to plant), read-out: Pigweed, Redroot damage rating; for pest or weed control at 62.5 g/ha: 62.5 g ai/ha, read-out: Pigweed, Redroot damage rating (100=total damage to plant; 0=no damage to plant); for pest or weed control at 62.5 g/ha / pest or weed control at 250 g/ha: evaluated after 13 days; for pest or weed control at 250 g/ha: 250 g ai/ha, read-out: damage to plant, Pigweed, Redroot (100=total damage to plant; 0=no damage to plant)
Procedure, shortened: as §1

corn (Zea mays) [6] = assay: Test G Post-Emergence Protocol; conditions: Zea mays, post-emergence, 312 h; for plant injury at 15.625 g/ha: 15.625 g ai/ha, evaluated after 13 days (100=total damage to plant; 0=no damage to plant), read-out: Corn damage rating; for plant injury at 62.5 g/ha: 62.5 g ai/ha, read-out: Corn damage rating (100=total damage to plant; 0=no damage to plant); for plant injury at 62.5 g/ha / plant injury at 250 g/ha: evaluated after 13 days; for plant injury at 250 g/ha: 250 g ai/ha, read-out: damage to plant, Corn (100=total damage to plant; 0=no damage to plant)
Procedure, shortened: as §1

[7] = tested on: velvetleaf (Abutilon theophrasti); assay: Test G Pre-Emergence Protocol; conditions: Abutilon theophrasti, pre-emergence, 312 h, evaluated after 13 days; for pest or weed control at 15.625 g/ha: 15.625 g ai/ha; for pest or weed control at 15.625 g/ha / pest or weed control at 250 g/ha: read-out: Velvetleaf damage rating (100=total damage to plant; 0=no damage to plant); for pest or weed control at 62.5 g/ha: 62.5 g ai/ha, 100=total damage to plant, 0=no damage to plant, read-out: plant damage rating, Velvetleaf; for pest or weed control at 250 g/ha: 250 g ai/ha
Procedure, shortened: (§2)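 Visual injury (0–100) at day 13 after a single pre-emergence spray. Rates: 15.625, 62.5, 250 g/ha in acetone–water 50:50 with 0.5% Tween 20. Growth conditions: 24/16° C, 14 h light, 65% humidity.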

[8] = tested on: barnyardgrass (Echinochloa crus-galli); assay: Test G Pre-Emergence Protocol; conditions: Echinochloa crus-galli, pre-emergence, 312 h, evaluated after 13 days; for pest or weed control at 15.625 g/ha: 15.625 g ai/ha, read-out: Barnyard grass damage rating (100=total damage to plant; 0=no damage to plant); for pest or weed control at 62.5 g/ha: 62.5 g ai/ha, 100=total damage to plant, 0=no damage to plant, read-out: plant damage rating, Barnyardgrass; for pest or weed control at 250 g/ha: 250 g ai/ha, read-out: Barnyardgrass damage rating (100=total damage to plant; 0=no damage to plant)
Procedure, shortened: as §2

[9] = tested on: ivy-leaved morning glory (Ipomoea hederacea); assay: Test G Pre-Emergence Protocol; conditions: Ipomoea, pre-emergence, 312 h, evaluated after 13 days; for pest or weed control at 15.625 g/ha: 15.625 g ai/ha, read-out: Morning-glory, Ivy-leaved damage rating (100=total damage to plant; 0=no damage to plant); for pest or weed control at 62.5 g/ha: 62.5 g ai/ha, 100=total damage to plant, 0=no damage to plant, read-out: plant damage rating, Morningglory, Ivy-leaved; for pest or weed control at 250 g/ha: 250 g ai/ha, read-out: Morningglory, Ivy-leaved damage rating (100=total damage to plant; 0=no damage to plant)
Procedure, shortened: as §2

[10] = tested on: giant foxtail (Setaria faberi); assay: Test G Pre-Emergence Protocol; conditions: Setaria faberi, pre-emergence, 312 h, evaluated after 13 days; for pest or weed control at 15.625 g/ha: 15.625 g ai/ha; for pest or weed control at 15.625 g/ha / pest or weed control at 250 g/ha: read-out: Foxtail, Giant damage rating (100=total damage to plant; 0=no damage to plant); for pest or weed control at 62.5 g/ha: 62.5 g ai/ha, 100=total damage to plant, 0=no damage to plant, read-out: plant damage rating, Foxtail, Giant; for pest or weed control at 250 g/ha: 250 g ai/ha
Procedure, shortened: as §2

[11] = tested on: redroot pigweed (Amaranthus retroflexus); assay: Test G Pre-Emergence Protocol; conditions: Amaranthus retroflexus, pre-emergence, 312 h, evaluated after 13 days; for pest or weed control at 15.625 g/ha: 15.625 g ai/ha; for pest or weed control at 15.625 g/ha / pest or weed control at 250 g/ha: read-out: Pigweed, Redroot damage rating (100=total damage to plant; 0=no damage to plant); for pest or weed control at 62.5 g/ha: 62.5 g ai/ha, 100=total damage to plant, 0=no damage to plant, read-out: plant damage rating, Pigweed, Redroot; for pest or weed control at 250 g/ha: 250 g ai/ha
Procedure, shortened: as §2

corn (Zea mays) [12] = assay: Test G Pre-Emergence Protocol; conditions: Zea mays, pre-emergence, 312 h, evaluated after 13 days; for plant injury at 15.625 g/ha: 15.625 g ai/ha; for plant injury at 15.625 g/ha / plant injury at 250 g/ha: read-out: Corn damage rating (100=total damage to plant; 0=no damage to plant); for plant injury at 62.5 g/ha: 62.5 g ai/ha, 100=total damage to plant, 0=no damage to plant, read-out: plant damage rating, Corn; for plant injury at 250 g/ha: 250 g ai/ha
Procedure, shortened: as §2

Row | SMILES | pest or weed control at 15.625 g/ha [1] [%] | pest or weed control at 62.5 g/ha [1] [%] | pest or weed control at 250 g/ha [1] [%] | pest or weed control at 15.625 g/ha [2] [%] | pest or weed control at 62.5 g/ha [2] [%] | pest or weed control at 250 g/ha [2] [%] | pest or weed control at 15.625 g/ha [3] [%] | pest or weed control at 62.5 g/ha [3] [%] | pest or weed control at 250 g/ha [3] [%] | pest or weed control at 15.625 g/ha [4] [%] | pest or weed control at 62.5 g/ha [4] [%] | pest or weed control at 250 g/ha [4] [%] | pest or weed control at 15.625 g/ha [5] [%] | pest or weed control at 62.5 g/ha [5] [%] | pest or weed control at 250 g/ha [5] [%] | plant injury at 15.625 g/ha (corn (Zea mays) [6]) [%] | plant injury at 62.5 g/ha (corn (Zea mays) [6]) [%] | plant injury at 250 g/ha (corn (Zea mays) [6]) [%] | pest or weed control at 15.625 g/ha [7] [%] | pest or weed control at 62.5 g/ha [7] [%] | further results
1 | Cc1cnc(NC(=O)[C@@H]2C(=O)N(C)C[C@H]2c2ccc(C(F)(F)F)cc2)s1 (racemic) [Compound 1570] | 0 | 0 | 0 | 0 | 0 | 10 | 0 | 0 | 10 | 0 | 0 | 20 | 0 | 0 | 0 | 0 | 0 | 0 | 0 | 0 | pest or weed control at 250 g/ha [7]: 0%; pest or weed control at 15.625 g/ha [8]: 0%; pest or weed control at 62.5 g/ha [8]: 0%; pest or weed control at 250 g/ha [8]: 0%; pest or weed control at 15.625 g/ha [9]: 0%; pest or weed control at 62.5 g/ha [9]: 0%; pest or weed control at 250 g/ha [9]: 0%; pest or weed control at 15.625 g/ha [10]: 0%; pest or weed control at 62.5 g/ha [10]: 0%; pest or weed control at 250 g/ha [10]: 0%; pest or weed control at 15.625 g/ha [11]: 0%; pest or weed control at 62.5 g/ha [11]: 0%; pest or weed control at 250 g/ha [11]: 0%; plant injury at 15.625 g/ha (corn (Zea mays) [12]): 0%; plant injury at 62.5 g/ha (corn (Zea mays) [12]): 0%; plant injury at 250 g/ha (corn (Zea mays) [12]): 0%
2 | CN1C[C@@H](c2ccc(C(F)(F)F)cc2)[C@H](C(=O)Nc2cnccn2)C1=O (racemic) [Compound 1572] | 0 | 0 | 0 | 0 | 0 | 0 | 0 | 10 | 30 | 0 | 0 | 40 | 0 | 0 | 20 | 0 | 0 | 0 | 0 | 0 | pest or weed control at 250 g/ha [7]: 0%; pest or weed control at 15.625 g/ha [8]: 0%; pest or weed control at 62.5 g/ha [8]: 0%; pest or weed control at 250 g/ha [8]: 0%; pest or weed control at 15.625 g/ha [9]: 0%; pest or weed control at 62.5 g/ha [9]: 0%; pest or weed control at 250 g/ha [9]: 0%; pest or weed control at 15.625 g/ha [10]: 0%; pest or weed control at 62.5 g/ha [10]: 0%; pest or weed control at 250 g/ha [10]: 0%; pest or weed control at 15.625 g/ha [11]: 0%; pest or weed control at 62.5 g/ha [11]: 0%; pest or weed control at 250 g/ha [11]: 0%; plant injury at 15.625 g/ha (corn (Zea mays) [12]): 0%; plant injury at 62.5 g/ha (corn (Zea mays) [12]): 0%; plant injury at 250 g/ha (corn (Zea mays) [12]): 0%
